Results as given in patent US6737383B1, “Herbicidal oxadiazolidines” (priority 1999, dated 2004).

Tests used:
surinam grass = experiment: Test B pre/postemergence surinam grass; type: in vivo, Brachiaria decumbens
Method in brief: (§1)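 Test chemicals in a non-phytotoxic solvent mixture with surfactant were sprayed preemergence onto planted seeds and postemergence onto plants 2 to 18 cm tall (1- to 4-leaf stage). After twelve to sixteen days in a greenhouse, injury was visually rated against untreated controls from 0 (no effect) to 10 (complete control).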

pigweed = experiment: Test B pre/postemergence pigweed; type: in vivo, Amaranthus retroflexus
Method in brief: as §1

sugar beet = experiment: Test B pre/postemergence sugar beet; type: in vivo, Beta vulgaris
Method in brief: as §1

bedstraw = experiment: Test B pre/postemergence bedstraw; type: in vivo, Galium aparine
Method in brief: as §1

crabgrass = experiment: Test B pre/postemergence crabgrass; type: in vivo, Digitaria sanguinalis
Method in brief: as §1

cocklebur = experiment: Test B pre/postemergence cocklebur; type: in vivo, Xanthium strumarium
Method in brief: as §1

morningglory = experiment: Test B pre/postemergence morningglory; type: in vivo, Ipomoea hederacea
Method in brief: as §1

purple nutsedge = experiment: Test B pre/postemergence purple nutsedge; type: in vivo, Cyperus rotundus
Method in brief: as §1

wheat = experiment: Test B pre/postemergence wheat; type: in vivo, Triticum aestivum
Method in brief: as §1

rape = experiment: Test B pre/postemergence rape; type: in vivo, Brassica napus
Method in brief: as §1

wild oat = experiment: Test B pre/postemergence wild oat; type: in vivo, Avena fatua
Method in brief: as §1

corn = experiment: Test B pre/postemergence corn; type: in vivo, Zea mays
Method in brief: as §1

soybean = experiment: Test B pre/postemergence soybean; type: in vivo, Glycine max
Method in brief: as §1

velvetleaf = experiment: Test B pre/postemergence velvetleaf; type: in vivo, Abutilon theophrasti
Method in brief: as §1

giant foxtail = experiment: Test B pre/postemergence giant foxtail; type: in vivo, Setaria faberii
Method in brief: as §1

blackgrass = experiment: Test B pre/postemergence blackgrass; type: in vivo, Alopecurus myosuroides
Method in brief: as §1

[1] = Postemergence, Rate 62 g/ha, scale 0 to 10, 0 is no effect, 10 is complete control
[2] = Postemergence, Rate 125 g/ha, scale of 0 to 10 where 0 is no effect and 10 is complete control
[3] = Preemergence, Rate 250 g/ha, scale 0 (no effect) to 10 (complete control)
[4] = Rate 125 g/ha, Preemergence, scale 0 to 10 (0 no effect, 10 complete control)
[5] = Rate 250 g/ha, Postemergence, scale 0 to 10, 0 is no effect, 10 is complete control
[6] = Rate 62 g/ha, Preemergence, scale 0 to 10
[7] = Postemergence, Rate 500 g/ha, scale 0 (no effect) to 10 (complete control)
[8] = Rate 500 g/ha, Preemergence, scale 0 to 10 (0 no effect, 10 complete control)

In the case of `CC(C)N(C(=O)n1oc(=O)n(CCCCCl)c1=O)c1ccccc1` [Compound 792], the “Plant response rating, B. signalgrass” value (surinam grass; [1]) was 0, the “B. signalgrass plant response rating” value (surinam grass; [2]) was 0 and the “B. signalgrass plant response rating” value (surinam grass; [3]) was 9. For the same molecule, the “B. signalgrass plant response rating” value (surinam grass; Rate 62 g/ha, Preemergence, scale 0 (no effect) to 10 (complete control)) was 0, the “B. signalgrass plant response rating” value (surinam grass; [4]) was 0 and the “B. signalgrass plant response rating” value (surinam grass; [5]) was 0. For the same molecule, the “B. signalgrass plant response rating” value (surinam grass; Rate 500 g/ha, Postemergence, scale 0 to 10, 0 is no effect, 10 is complete control) was 2, the “Plant response rating, Redroot pigweed” value (pigweed; [1]) was 0 and the “Redroot pigweed plant response rating” value (pigweed; [2]) was 6. For the same molecule, the “Redroot pigweed plant response rating” value (pigweed; [6]) was 7, the “Redroot pigweed plant response rating” value (pigweed; [4]) was 9 and the “Redroot pigweed plant response rating” value (pigweed; [5]) was 6. For the same molecule, the “Plant response rating, Sugarbeets” value (sugar beet; [1]) was 0, the “Sugarbeets plant response rating” value (sugar beet; [7]) was 2 and the “Sugarbeets plant response rating” value (sugar beet; [6]) was 0. For the same molecule, the “Sugarbeets plant response rating” value (sugar beet; [4]) was 3, the “Sugarbeets plant response rating” value (sugar beet; [5]) was 2 and the “Bedstraw plant response rating” value (bedstraw; [2]) was 7. For the same molecule, the “Bedstraw plant response rating” value (bedstraw; [3]) was 4, the “Bedstraw plant response rating” value (bedstraw; [6]) was 0 and the “Bedstraw plant response rating” value (bedstraw; [4]) was 0. For the same molecule, the “Plant response rating, Crabgrass” value (crabgrass; [1]) was 2, the “Crabgrass plant response rating” value (crabgrass; [2]) was 9 and the “Crabgrass plant response rating” value (crabgrass; [7]) was 9. For the same molecule, the “Crabgrass plant response rating” value (crabgrass; [3]) was 10, the “Crabgrass plant response rating” value (crabgrass; [6]) was 10 and the “Crabgrass plant response rating” value (crabgrass; [4]) was 10. For the same molecule, the “Crabgrass plant response rating” value (crabgrass; [8]) was 10, the “Plant response rating, Cocklebur” value (cocklebur; [1]) was 0 and the “Cocklebur plant response rating” value (cocklebur; [2]) was 1. For the same molecule, the “Cocklebur plant response rating” value (cocklebur; [7]) was 3, the “Cocklebur plant response rating” value (cocklebur; [3]) was 0 and the “Cocklebur plant response rating” value (cocklebur; [6]) was 0. For the same molecule, the “Cocklebur plant response rating” value (cocklebur; [5]) was 3, the “Cocklebur plant response rating” value (cocklebur; [8]) was 0 and the “Plant response rating, Morningglory” value (morningglory; [1]) was 6. For the same molecule, the “Morningglory plant response rating” value (morningglory; [2]) was 7, the “Morningglory plant response rating” value (morningglory; [7]) was 10 and the “Morningglory plant response rating” value (morningglory; [6]) was 0. For the same molecule, the “Morningglory plant response rating” value (morningglory; [4]) was 0, the “Morningglory plant response rating” value (morningglory; [5]) was 10 and the “Morningglory plant response rating” value (morningglory; [8]) was 0. The “Plant response rating, Nutsedge” value (purple nutsedge; [1]) was 0, the “Nutsedge plant response rating” value (purple nutsedge; [2]) was 0 and the “Nutsedge plant response rating” value (purple nutsedge; [7]) was 0. For the same molecule, the “Nutsedge plant response rating” value (purple nutsedge; [6]) was 0, the “Nutsedge plant response rating” value (purple nutsedge; [4]) was 0 and the “Nutsedge plant response rating” value (purple nutsedge; [5]) was 0. For the same molecule, the “Nutsedge plant response rating” value (purple nutsedge; [8]) was 0, the “Plant response rating, Wheat” value (wheat; [1]) was 0 and the “Wheat plant response rating” value (wheat; [7]) was 3. The “Wheat plant response rating” value (wheat; [6]) was 0, the “Wheat plant response rating” value (wheat; [4]) was 0 and the “Wheat plant response rating” value (wheat; [5]) was 1. For the same molecule, the “Plant response rating, Rape” value (rape; [1]) was 3, the “Rape plant response rating” value (rape; [2]) was 3 and the “Rape plant response rating” value (rape; [7]) was 7. For the same molecule, the “Rape plant response rating” value (rape; [6]) was 0, the “Rape plant response rating” value (rape; [4]) was 0 and the “Rape plant response rating” value (rape; [5]) was 7. The “Plant response rating, Wild oats” value (wild oat; [1]) was 0, the “Wild oats plant response rating” value (wild oat; [7]) was 6 and the “Wild oats plant response rating” value (wild oat; [6]) was 0. For the same molecule, the “Wild oats plant response rating” value (wild oat; [4]) was 0, the “Wild oats plant response rating” value (wild oat; [5]) was 2 and the “Plant response rating, Corn” value (corn; [1]) was 0. For the same molecule, the “Corn plant response rating” value (corn; [2]) was 1, the “Corn plant response rating” value (corn; [7]) was 3 and the “Corn plant response rating” value (corn; [3]) was 4. For the same molecule, the “Corn plant response rating” value (corn; [6]) was 0, the “Corn plant response rating” value (corn; [4]) was 2 and the “Corn plant response rating” value (corn; [5]) was 2. For the same molecule, the “Corn plant response rating” value (corn; [8]) was 4, the “Plant response rating, Soybean” value (soybean; [1]) was 4 and the “Soybean plant response rating” value (soybean; [7]) was 7. For the same molecule, the “Soybean plant response rating” value (soybean; [6]) was 0, the “Soybean plant response rating” value (soybean; [4]) was 0 and the “Soybean plant response rating” value (soybean; [5]) was 5. For the same molecule, the “Soybean plant response rating” value (soybean; [8]) was 0, the “Plant response rating, Velvetleaf” value (velvetleaf; [1]) was 0 and the “Velvetleaf plant response rating” value (velvetleaf; [7]) was 7. For the same molecule, the “Velvetleaf plant response rating” value (velvetleaf; [6]) was 0, the “Velvetleaf plant response rating” value (velvetleaf; [4]) was 3 and the “Velvetleaf plant response rating” value (velvetleaf; [5]) was 6. The “Velvetleaf plant response rating” value (velvetleaf; [8]) was 5, the “Plant response rating, Giant foxtail” value (giant foxtail; [1]) was 2 and the “Giant foxtail plant response rating” value (giant foxtail; [2]) was 9. The “Giant foxtail plant response rating” value (giant foxtail; [7]) was 9, the “Giant foxtail plant response rating” value (giant foxtail; [3]) was 10 and the “Giant foxtail plant response rating” value (giant foxtail; [6]) was 10. For the same molecule, the “Giant foxtail plant response rating” value (giant foxtail; [4]) was 10, the “Giant foxtail plant response rating” value (giant foxtail; [5]) was 9 and the “Giant foxtail plant response rating” value (giant foxtail; [8]) was 10. The “Plant response rating, Blackgrass” value (blackgrass; [1]) was 4, the “Blackgrass plant response rating” value (blackgrass; [2]) was 7 and the “Blackgrass plant response rating” value (blackgrass; [7]) was 7. The “Blackgrass plant response rating” value (blackgrass; [3]) was 8, the “Blackgrass plant response rating” value (blackgrass; [6]) was 1 and the “Blackgrass plant response rating” value (blackgrass; [4]) was 4.
